Laboratory results taken from patent US20130102009A1, “SIRTUIN ACTIVATORS AND ACTIVATION ASSAYS” (priority 2010, published 2013).
“Also recorded” adds a separate entry of the source. Structures can show the parent of a compound that is named as a salt.

Tests used:
SIRT1(183-664) = target: T1, SIRT1(183-664) (Homo sapiens, UniProt Q96EB6); assay: ITC binding of STACs to SIRT1(183-664); settings: dissociation constant of SRT:SIRT1 complex, read-out: Kx (μM), ITC
T1 construct: the truncated version used for biophysical studies SIRT1(183-664); made in house
T1 sequence (Q96EB6 183-664): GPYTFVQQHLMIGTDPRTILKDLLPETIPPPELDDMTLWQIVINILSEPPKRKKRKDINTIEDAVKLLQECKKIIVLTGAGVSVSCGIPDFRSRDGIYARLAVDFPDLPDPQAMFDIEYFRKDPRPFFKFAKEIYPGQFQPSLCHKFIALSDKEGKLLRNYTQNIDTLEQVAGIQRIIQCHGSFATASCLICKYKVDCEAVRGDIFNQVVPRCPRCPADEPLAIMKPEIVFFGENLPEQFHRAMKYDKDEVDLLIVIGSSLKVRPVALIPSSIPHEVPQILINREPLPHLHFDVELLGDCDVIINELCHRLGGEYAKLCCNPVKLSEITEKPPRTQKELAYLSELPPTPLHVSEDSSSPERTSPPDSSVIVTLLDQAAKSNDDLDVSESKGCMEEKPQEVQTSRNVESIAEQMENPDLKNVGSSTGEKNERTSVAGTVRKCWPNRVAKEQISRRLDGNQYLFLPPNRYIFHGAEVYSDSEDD
Protocol: All peptides were prepared by BioPeptide (San Diego, Calif.) and shown to be at least 95% pure by analytical HPLC analysis. Bovine glutamate dehydrogenase (GDH), α-ketoglutarate, NADH and NAD^+ were from Sigma Chemical Company. Full-length, human SIRT1 and the truncated version used for biophysical studies SIRT1(183-664) were prepared as described previously, and shown to have equivalent kinetic properties (Milne et al. (2007) Nature 450, 712-716). The nicotinamidase PNC1 was prepared as described by Denu and colleagues (Smith et al. (2009) Anal Biochem 394, 101-109). ITC experiments were performed using either a VP-ITC system or iTC200 system (MicroCal) at 26° C. in a buffer composed of 137 mM NaCl, 2.7 mM KCl, 1 mM MgCl2, 2 mM TCEP, 5% (v/v) glycerol and 50 mM HEPES-NaOH, pH 7.3. SIRT1(183-664) was purified and dialyzed against the buffer, centrifuged, and degassed before the experiment. The peptide and compounds were dissolved in the final dialysis buffer and their pH values were adjusted to match that of the protein solution. […] To characterize this interaction using the iTC200 system, 1 mM TAMRA-peptide was injected in 20 aliquots of 2 μL, (except the first injection, which was 0.5 μL) into a 0.202 mL sample cell containing 100 μM STAC. For STACs with poor solubility, the concentrations were adjusted accordingly. […] To characterize the interaction of a STAC with SIRT1(183-664) on the VP-ITC system, 100 μM enzyme was injected in 35 aliquots of 8 μL, (except the first injection, which was 2 μL) into a 1.47 mL sample cell containing 10 μM STAC. […] In all cases, data was corrected for the heat of dilution and fitted using a nonlinear least-squares routine using a single-site binding model with Origin for ITC v7.0383 (Microcal) with the stoichiometry (n), the enthalpy of the reaction (ΔH) and the association constant (Ka) calculated.

TAMRA-peptide = assay: ITC binding of STACs to TAMRA-peptide; settings: 26° C.; for Kd: pH 7.3, read-out: Kd for the binding of activator to TAMRA-peptide
Protocol: ITC experiments were performed using either a VP-ITC system or iTC200 system (MicroCal) at 26° C. in a buffer composed of 137 mM NaCl, 2.7 mM KCl, 1 mM MgCl2, 2 mM TCEP, 5% (v/v) glycerol and 50 mM HEPES-NaOH, pH 7.3. SIRT1(183-664) was purified and dialyzed against the buffer, centrifuged, and degassed before the experiment. The peptide and compounds were dissolved in the final dialysis buffer and their pH values were adjusted to match that of the protein solution. […] To characterize this interaction using the iTC200 system, 1 mM TAMRA-peptide was injected in 20 aliquots of 2 μL, (except the first injection, which was 0.5 μL) into a 0.202 mL sample cell containing 100 μM STAC. For STACs with poor solubility, the concentrations were adjusted accordingly. […] In all cases, data was corrected for the heat of dilution and fitted using a nonlinear least-squares routine using a single-site binding model with Origin for ITC v7.0383 (Microcal) with the stoichiometry (n), the enthalpy of the reaction (ΔH) and the association constant (Ka) calculated.

Structure (SMILES)	Kd (SIRT1(183-664))	Kd (TAMRA-peptide)	Kd for the binding of activator to TAMRA-peptide (TAMRA-peptide; pH 7.3)
CCCCc1nc(NC2CCNCC2)cc(C(=O)Nc2ccccc2-c2nc3cc(COC4CCNCC4)cnc3s2)n1 [Compound 10, 2-butyl-6-(piperidin-4-ylamino)-N-(2-(6-((piperidin-4-yloxy)methyl)thiazolo[5,4-b]pyridin-2-yl)phenyl)pyrimidine-4-carboxamide]	–	2.5 µM	–
COc1cc(C(=O)Nc2ccccc2-c2cn3c(CN4CCNCC4)csc3n2)cc(OC)c1OC [SRT1460]	–	140 µM	–
CN(C)Cc1cnc2sc(-c3ccccc3NC(=O)c3cnc4ccccc4n3)nc2c1 [Compound 2, N-(2-(6-((dimethylamino)methyl)thiazolo[5,4-b]pyridin-2-yl)phenyl)quinoxaline-2-carboxamide]	0.32 µM	–	–

More lines, main results first:

Kd (SIRT1(183-664))	Structure (SMILES)	Kd (TAMRA-peptide)	Kd for the binding of activator to TAMRA-peptide (TAMRA-peptide; pH 7.3)
0.43 µM	CN(C)CCCNc1cc(-c2nc3c(NC(=O)c4ccc(CN5CCNCC5)cc4)cccc3[nH]2)ccn1 [Compound 14, N-(2-(2-(3-(dimethylamino)propylamino)pyridin-4-yl)-1H-benzo[d]imidazol-4-yl)-4-(piperazin-1-ylmethyl)benzamide trihydrochloride]	–	–
3 µM	Cc1nc(-c2cccnc2)sc1C(=O)Nc1ccccc1-c1cn2c(CN3CC4CC3CN4)csc2n1 (stereo not shown) [Compound 4, N-(2-(3-(2,5-diazabicyclo[2.2.1]heptan-2-ylmethyl)imidazo[2,1-b]thiazol-6-yl)phenyl)-4-methyl-2-(pyridin-3-yl)thiazole-5-carboxamide]	> 100 µM	no detectable binding; also recorded: lack of binding
